Measured values reported in publication PMC5905287, “Synthesis and in vitro biochemical evaluation of oxime bond-linked daunorubicin–GnRH-III conjugates developed for targeted drug delivery” (Beilstein Journal of Organic Chemistry, 2018).
Where two headings read alike, the source gives them in different places. Non-standard residues stand in square brackets, D forms with d. Residues, ends and D or L forms follow the SMILES beside them. *: point of attachment. Daunorubicin(13-NOCH2CO) = COc1cccc2c1C(=O)c1c(O)c3c(c(O)c1C2=O)C[C@@](O)(C(C)=NOCC(=O)*)C[C@@H]3O[C@H]1C[C@H](N)[C@H](O)[C@H](C)O1; pGlu = O=C1CC[C@@H](C(=O)O)N1; Butyryl = CCCC(=O)*

Legend:
[1] = test system: HT-29 human colon cancer cell line; test: In vitro cytostatic effect, alamarBlue assay, HT-29; type: cell-based
Source text: (§1) Cell lines often function as the first model system of choice to study biological processes or to test the efficiency of drugs or drug conjugates and their cytotoxic effects. Immortal cell lines offer various benefits, for instance they are easy to handle, cost-effective and provide consistent sample and reproducible results. Nevertheless, cell lines also present the disadvantage that after a period of continuous growth, cell characteristics can change and dedifferentiate in culture. The serial passaging can cause genotypic and phenotypic variations and the state of confluency can also affect gene expression pattern in some cell lines. Due to this, the usage of internal standards during the evaluation of new potential candidates might be necessary to ensure comparability with previous results. The cytostatic effect of the novel GnRH-III bioconjugates was determined on HT-29 human colon cancer and MCF-7 human breast cancer cell lines by alamarBlue® assay. For a better comparison, the well-studied bioconjugates GnRH-III–[^8Lys(Dau=Aoa)] (K1) and GnRH-III–[^4Lys(Bu), ^8Lys(Dau=Aoa)] (K2) were used as positive controls and internal standards. The corresponding IC50 values were calculated by using nonlinear regression (sigmoidal dose response) (Figure 3, Table 2). Unfortunately, the D-Trp containing compounds 3 and 6 started to precipitate in both cell culture media at higher concentrations limiting the concentration down to a maximum of 10 µM. This effect could not be prevented by using DMSO instead of ddH2O for the preparation of the stock solutions. Unfortunately, the lower concentration range with a maximum of 10 µM was not sufficient to achieve the dose-response. […] Nevertheless, the replacement of ^6Asp by D-Asp, D-Glu or D-Trp led to a decreased cytostatic effect on the estimated cancer cell lines.
(§2) MCF-7 human breast adenocarcinoma cells were cultured in Dulbecco’s Modified Eagle Medium (DMEM, Lonza, Basel, Switzerland), supplemented with 10% (v/v) fetal bovine serum (FBS, Lonza), L-glutamine (2 mM, Lonza), non-essential amino acids (NEAA, Sigma-Aldrich Kft), sodium pyruvate (1 mM, Lonza) and penicillin-streptomycine (Lonza). […]
(§3) Cells were seeded to 96-well plates (Sarstedt, Nümbrecht, Germany, 5 × 10^3 cells/well) one day prior to the treatment in complete cell medium. […] Fluorescence was detected using Synergy H4 multi-mode microplate reader (BioTek, Winooski, VT, USA), excitation and emission wavelengths were set to 570 and 620 nm, respectively. Cytostasis was measured using 4 parallels, each experiment was repeated twice. Cytostatic effect (and IC50 values) were calculated by using nonlinear regression (sigmoidal dose response) with Origin Pro8 (OriginLab Corp., Northampton, MA, USA.).

[2] = molecular target: T1, GnRH-RI (Homo sapiens, UniProt P30968); test: Competitive inhibition of [125I][6D-Trp]-GnRH-I binding, human prostate cancer membranes; parameters: human prostate cancer cells were obtained from a patient at the time of initial surgical treatment; from tissue; host or cells: human prostate cancer specimen from a patient (surgery); membrane homogenate
T1 sequence (P30968 1-328): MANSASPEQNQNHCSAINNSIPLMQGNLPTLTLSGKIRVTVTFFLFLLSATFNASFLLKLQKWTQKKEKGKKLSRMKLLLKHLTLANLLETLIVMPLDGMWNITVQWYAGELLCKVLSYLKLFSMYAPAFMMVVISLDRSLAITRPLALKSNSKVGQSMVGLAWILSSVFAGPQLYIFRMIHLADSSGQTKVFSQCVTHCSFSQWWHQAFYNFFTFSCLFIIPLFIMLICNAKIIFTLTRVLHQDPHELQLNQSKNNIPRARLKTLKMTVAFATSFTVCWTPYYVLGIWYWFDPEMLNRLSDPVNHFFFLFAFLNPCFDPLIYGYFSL
Procedure: To investigate the binding affinity of the novel compounds to the GnRH-receptor, an in vitro ligand competition assay has been performed on human pituitary and GnRH-R positive human prostate cancer tissues. Hereby, the displacement of radiolabeled triptorelin by the unlabeled bioconjugates 1, 2, 4 and 5 was determined. For a better comparison, the bioconjugates K1 and K2 were also analyzed and used as reference. The obtained results summarized in Table 3 point out that all bioconjugates replaced [^125I]-triptorelin with IC50 values in low nanomolar range. […] (1.6 nM and 0.9 nM) and GnRH-II–[D-Lys^6(Dau=Aoa)] (4.2 nM and 2.1 nM).
Radiolabeled triptorelin was used for displacement studies to evaluate the binding affinity of the conjugates K1, K2, 1, 2, 4 and 5 to GnRH-RI on human pituitary and human prostate cancer cells. […] The binding affinities of the nonradio-labeled GnRH-III bioconjugates to GnRH-RI were determined by displacement of [^125I]-GnRH-I-[^6D-Trp] performing an in vitro ligand competition assay as recently reported. […] Supernatants were aspirated and the bottoms of the tubes containing the pellet were cut off and counted in a gamma counter. Protein concentration was determined by the method of Bradford using a Bio-Rad protein assay kit (Bio-Rad Laboratories, USA). […]

[3] = test system: MCF-7 human breast cancer cell line; test: In vitro cytostatic effect, alamarBlue assay, MCF-7; type: cell-based
Source text: as §1, §2, §3

| Structure (SMILES) | IC50 ([1]; 24 h) [µM] | IC50 ([2]; displacement of [125I]-triptorelin, human prostate cancer membranes, mean ± SE, read-out: IC50 prostate cancer) [µM] | IC50 ([3]; 24 h) [µM] | IC50 ([1]; 24 h treatment, then 48 h in complete medium, alamarBlue, mean ± SE, read-out: HT-29 IC50) [µM] | IC50 [2] [µM] | IC50 ([3]; 24 h treatment, then 48 h in complete medium, alamarBlue, mean ± SE, read-out: MCF-7 IC50) [µM] |
| --- | --- | --- | --- | --- | --- | --- |
| COc1cccc2c1C(=O)c1c(O)c3c(c(O)c1C2=O)C[C@@](O)(C(C)=NOCC(=O)NCCCC[C@H](NC(=O)[C@H](Cc1c[nH]c2ccccc12)NC(=O)[C@@H](CCC(=O)O)NC(=O)[C@H](Cc1c[nH]cn1)NC(=O)[C@H](CO)NC(=O)[C@H](Cc1c[nH]c2ccccc12)NC(=O)[C@H](Cc1c[nH]cn1)NC(=O)[C@@H]1CCC(=O)N1)C(=O)N1CCC[C@H]1C(=O)NCC(N)=O)C[C@@H]3O[C@H]1C[C@H](N)[C@H](O)[C@H](C)O1 [compound 2, [6D-Glu, 8Lys(Dau=Aoa)]] ([pGlu]HWSH[dE]WK(Daunorubicin(13-NOCH2CO))PG-NH2) | 10.1 ± 1.4 | 0.0104 ± 0.0013 | 6.8 ± 1 | – | – | – |
| CCCC(=O)NCCCC[C@H](NC(=O)[C@H](Cc1c[nH]c2ccccc12)NC(=O)[C@H](Cc1c[nH]cn1)NC(=O)[C@@H]1CCC(=O)N1)C(=O)N[C@@H](Cc1c[nH]cn1)C(=O)N[C@H](CCC(=O)O)C(=O)N[C@@H](Cc1c[nH]c2ccccc12)C(=O)N[C@@H](CCCCNC(=O)CON=C(C)[C@]1(O)Cc2c(O)c3c(c(O)c2[C@@H](O[C@H]2C[C@H](N)[C@H](O)[C@H](C)O2)C1)C(=O)c1c(OC)cccc1C3=O)C(=O)N1CCC[C@H]1C(=O)NCC(N)=O [compound 5, [4Lys(Bu), 6D-Glu, 8Lys(Dau=Aoa)]] ([pGlu]HWK(Butyryl)H[dE]WK(Daunorubicin(13-NOCH2CO))PG-NH2) | – | – | – | 13.7 ± 2.6 | 0.0116 ± 0.002 | 7 ± 1.2 |
